From patent US10316017B2, “COT modulators and methods of use thereof” (Gilead Sciences, Inc., priority 2015, dated 2019)

Assays:
[1] = molecular target: T1, human Cot catalytic domain (30-397 amino acids) (Homo sapiens, UniProt P41279); assay: High Throughput Cot Biochemical Assay (KinEASE TR-FRET); details: Cot biochemical HTRF (KinEASE TR-FRET) assay; read-out: IC50 HTRF
T1 construct: Purified recombinant human Cot catalytic domain (30-397 amino acids) was purchased from Cama Biosciences; purchased Cama Biosciences (so in the source)
T1 sequence (P41279 30-397): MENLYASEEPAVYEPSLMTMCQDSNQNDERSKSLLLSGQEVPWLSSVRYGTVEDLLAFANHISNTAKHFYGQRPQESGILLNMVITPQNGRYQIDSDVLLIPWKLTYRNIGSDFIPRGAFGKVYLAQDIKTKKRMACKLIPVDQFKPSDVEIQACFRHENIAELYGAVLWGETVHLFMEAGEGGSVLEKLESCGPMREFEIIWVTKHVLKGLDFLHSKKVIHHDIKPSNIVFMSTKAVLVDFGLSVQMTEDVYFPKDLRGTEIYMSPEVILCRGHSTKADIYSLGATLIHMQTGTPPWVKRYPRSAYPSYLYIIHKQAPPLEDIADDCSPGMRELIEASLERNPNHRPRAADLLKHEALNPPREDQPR
Summary of the method: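 Reaction of 5 nM recombinant human Cot catalytic domain (aa 30-397) with 1 μM STK3 peptide (XL665-labeled) and 400 μM ATP in 10 mM MOPS pH 7.0, 10 mM MgOAc, 1 mM DTT, 0.5 mg/mL BSA, 0.1% DMSO. Phosphopeptide detected by TR-FRET with europium anti-phospho antibody.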

[2] = tested on: TNFα production in LPS-stimulated human monocytes; assay: Cot Monocyte TNFα Cell Based Assay; details: Homo sapiens, Monocyte, TNFα in LPS-stimulated human monocytes; read-out: EC50 TNF
Summary of the method: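 Cells at 5,000/well were pretreated with compound for 1 h at 37 °C (0.5% DMSO final), then stimulated with 50 pg/ml LPS for 4 h at 37 °C. Supernatant TNFα was measured by two-antibody TR-FRET after overnight room-temperature incubation; values are percent of control between unstimulated and stimulated wells.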

SMILES | IC50 [1] | EC50 [2]
CC(C)(C)N1CCC(n2cc([C@@H](Nc3cc(Cl)c4ncc(C#N)c(Nc5cscc5Cl)c4c3)c3ccccc3)nn2)CC1 [Example 612, (S)-6-(((1-(1-(tert-butyl)piperidin-4-yl)-1H-1,2,3-triazol-4-yl)(phenyl)methyl)amino)-8-chloro-4-((4-chlorothiophen-3-yl)amino)quinoline-3-carbonitrile] | 84 nM | 2020 nM
N#Cc1cnc2c(Cl)cc(N[C@@H](c3ccccc3)c3c[nH]nn3)cc2c1Nc1cccc(Cl)c1F [Example 613, (S)-8-chloro-4-((3-chloro-2-fluorophenyl)amino)-6-((phenyl(1H-1,2,3-triazol-4-yl)methyl)amino)quinoline-3-carbonitrile] | 41 nM | 708 nM
N#Cc1cnc2c(Cl)cc(N[C@@H](c3ccc(Cl)cc3)c3c[nH]nn3)cc2c1Nc1ccc(O)c(Cl)c1 [Example 614, (S)-8-chloro-4-((3-chloro-4-hydroxyphenyl)amino)-6-(((4-chlorophenyl)(1H-1,2,3-triazol-4-yl)methyl)amino)quinoline-3-carbonitrile] | 123 nM | 1110 nM
CC1(Nc2c(C#N)cnc3c(Cl)cc(N[C@@H](c4ccccc4)c4cn(C5CCN(C(C)(C)C)CC5)nn4)cc23)CCCCCC1 [Example 615, (S)-6-(((1-(1-(tert-butyl)piperidin-4-yl)-1H-1,2,3-4-yl)(phenyl)methyl)amino)-8-chloro-4-((1-methylcycloheptyl)amino) quinoline-3-carbonitrile] | 141 nM | 719 nM
CC(C)(C)N1CCC(n2cc([C@@H](Nc3cc(Cl)c4ncc(C#N)c(NCc5ccccc5Cl)c4c3)c3ccccc3)nn2)CC1 [Example 616, (S)-6-(((1-(1-(tert-butyl)piperidin-4-yl)-1H-1,2,3-triazol-4-yl)(phenyl)methyl)amino)-8-chloro-4-((2-chlorobenzyl)amino)quinoline-3-carbonitrile] | 40 nM | 2180 nM
CC(C)(C)N1CCC(n2cc([C@@H](Nc3cc(Cl)c4ncc(C#N)c(NCc5cccc(F)c5F)c4c3)c3ccccc3)nn2)CC1 [Example 617, (S)-6-(((1-(1-(tert-butyl)piperidin-4-yl)-1H-1,2,3-triazol-4-yl)(phenyl)methyl)amino)-8-chloro-4-((2,3-difluorobenzyl)amino)quinoline-3-carbonitrile] | 43 nM | 12300 nM
CC(C)(C)N1CCC(n2cc([C@@H](Nc3cc(Cl)c4ncc(C#N)c(NCc5ccccc5F)c4c3)c3ccccc3)nn2)CC1 [Example 618, (S)-6-(((1-(1-(tert-butyl)piperidin-4-yl)-1H-1,2,3-triazol-4-yl)(phenyl)methyl)amino)-8-chloro-4-((2-fluorobenzyl)amino)quinoline-3-carbonitrile] | 53 nM | 1700 nM
C[C@@H](Nc1c(C#N)cnc2c(Cl)cc(N[C@@H](c3ccccc3)c3cn(C4CCN(C(C)(C)C)CC4)nn3)cc12)c1ccccc1F [Example 619, 6-(((S)-(1-(1-(tert-butyl)piperidin-4-yl)-1H-1,2,3-triazol-4-yl)(phenyl)methyl)amino)-8-chloro-4-(((R)-1-(2-fluorophenyl)ethyl)amino) quinoline-3-carbonitrile] | 16 nM | 826 nM
CNc1cccc([C@H](Nc2cc(Cl)c3ncc(C#N)c(Nc4ccc(F)c(Cl)c4)c3c2)c2cn(C3CCN(C(C)(C)C)CC3)nn2)c1 [Example 620, (S)-6-(((1-(1-(tert-butyl)piperidin-4-yl)-1H-1,2,3-triazol-4-yl)(3-(methylamino)phenyl)methyl)amino)-8-chloro-4-((3-chloro-4-fluorophenyl)amino)quinoline-3-carbonitrile] | 6 nM | 96 nM
COC1CN(C(=O)c2cccc([C@H](Nc3cc(Cl)c4ncc(C#N)c(Nc5ccc(F)c(Cl)c5)c4c3)c3cn(C4CCN(C(C)(C)C)CC4)nn3)c2)C1 [Example 621, (S)-6-(((1-(1-(tert-butyl)piperidin-4-yl)-1H-1,2,3-triazol-4-yl)(3-(3-methoxyazetidine-1-carbonyl)phenyl)methyl)amino)-8-chloro-4-((3-chloro-4-fluorophenyl)amino)quinoline-3-carbonitrile] | 2 nM | 112 nM
CN(C)C1CN(C(=O)c2cccc([C@H](Nc3cc(Cl)c4ncc(C#N)c(Nc5ccc(F)c(Cl)c5)c4c3)c3cn(C4CCN(C(C)(C)C)CC4)nn3)c2)C1 [Example 622, (S)-6-(((1-(1-(tert-butyl)piperidin-4-yl)-1H-1,2,3-triazol-4-yl)(3-(3-(dimethylamino)azetidine-1-carbonyl)phenyl)methyl)amino)-8-chloro-4-((3-chloro-4-fluorophenyl)amino)quinoline-3-carbonitrile] | 5 nM | 851 nM
CC(=O)N(C)c1cccc([C@H](Nc2cc(Cl)c3ncc(C#N)c(Nc4ccc(F)c(Cl)c4)c3c2)c2cn(C3CCN(C(C)(C)C)CC3)nn2)c1 [Example 623, (S)-N-(3-((1-(1-(tert-butyl)piperidin-4-yl)-1H-1,2,3-triazol-4-yl)((8-chloro-4-((3-chloro-4-fluorophenyl)amino)-3-cyanoquinolin-6-yl)amino)methyl)phenyl)-N-methylacetamide] | 1 nM | 90 nM
CC(=O)Nc1cccc([C@H](Nc2cc(Cl)c3ncc(C#N)c(Nc4ccc(F)c(Cl)c4)c3c2)c2cn(C3CCN(C(C)(C)C)CC3)nn2)c1 [Example 624, (S)-N-(3-((1-(1-(tert-butyl)piperidin-4-yl)-1H-1,2,3-triazol-4-yl)((8-chloro-4-((3-chloro-4-fluorophenyl)amino)-3-cyanoquinolin-6-yl)amino)methyl)phenyl)acetamide] | 3 nM | 266 nM
N#Cc1cnc2c(Cl)cc(N[C@@H](c3ccccc3)c3cn(C4CCN(C5COC5)CC4)nn3)cc2c1Nc1ccc(Cl)c(Cl)c1F [Example 625, (S)-8-chloro-4-((3,4-dichloro-2-fluorophenyl)amino)-6-(((1-(1-(oxetan-3-yl)piperidin-4-yl)-1H-1,2,3-triazol-4-yl)(phenyl)methyl)amino) quinoline-3-carbonitrile] | 116 nM | 1160 nM
CC[C@@H](Nc1c(C#N)cnc2c(Cl)cc(N[C@H](c3ccccc3)c3c[nH]nn3)cc12)c1ccccc1 [Example 626, 8-chloro-6-(((R)-phenyl(1H-1,2,3-triazol-4-yl)methyl)amino)-4-(((R)-1-phenylpropyl)amino) quinoline-3-carbonitrile] | 784 nM | > 50000 nM
CC[C@@H](Nc1c(C#N)cnc2c(Cl)cc(N[C@@H](c3ccccc3)c3c[nH]nn3)cc12)c1ccccc1 [Example 627, 8-chloro-6-(((S)-phenyl(1H-1,2,3-triazol-4-yl)methyl)amino)-4-(((R)-1-phenylpropyl)amino) quinoline-3-carbonitrile] | 16 nM | 456 nM
CC(C)(C)N1CCC(n2cc([C@@H](Nc3cc(Cl)c4ncc(C#N)c(Nc5cccc(Cl)c5F)c4c3)c3ccccc3)nn2)CC1 [Example 628, (S)-6-(((1-(1-(tert-butyl)piperidin-4-yl)-1H-1,2,3-triazol-4-yl)(phenyl)methyl)amino)-8-chloro-4-((3-chloro-2-fluorophenyl)amino)quinoline-3-carbonitrile] | 7 nM | 109 nM
CC[C@@H](Nc1c(C#N)cnc2c(Cl)cc(N[C@@H](c3ccccc3)c3cn(C4CCN(C(C)(C)C)CC4)nn3)cc12)c1ccccc1 [Example 629, 6-(((S)-(1-(1-(tert-butyl)piperidin-4-yl)-1H-1,2,3-triazol-4-yl)(phenyl)methyl)amino)-8-chloro-4-(((R)-1-phenylpropyl)amino)quinoline-3-carbonitrile] | 3 nM | 72 nM
Cn1ccnc1-c1cccc([C@H](Nc2cc(Cl)c3ncc(C#N)c(Nc4ccc(F)c(Cl)c4)c3c2)c2cn(C3CCN(C(C)(C)C)CC3)nn2)c1 [Example 630, (S)-6-(((1-(1-(tert-butyl)piperidin-4-yl)-1H-1,2,3-triazol-4-yl)(3-(1-methyl-1H-imidazol-2-yl)phenyl)methyl)amino)-8-chloro-4-((3-chloro-4-fluorophenyl)amino)quinoline-3-carbonitrile] | 3 nM | 1630 nM
N#Cc1cnc2c(Cl)cc(N[C@@H](c3ccc(Cl)cc3)c3c[nH]nn3)cc2c1Nc1ccc(F)c(F)c1F [Example 631, (S)-8-chloro-6-(((4-chlorophenyl)(1H-1,2,3-triazol-4-yl)methyl)amino)-4-((2,3,4-trifluorophenyl)amino)quinoline-3-carbonitrile] | 166 nM | 1080 nM
CC(C)(C)N1CCC(n2cc([C@@H](Nc3cc(Cl)c4ncc(C#N)c(Nc5ccc(F)c(Cl)c5)c4c3)c3cccc(-c4nccs4)c3)nn2)CC1 [Example 632, (S)-6-(((1-(1-(tert-butyl)piperidin-4-yl)-1H-1,2,3-triazol-4-yl)(3-(thiazol-2-yl)phenyl)methyl)amino)-8-chloro-4-((3-chloro-4-fluorophenyl)amino)quinoline-3-carbonitrile] | 3 nM | 163 nM
C[C@@H](Nc1c(C#N)cnc2c(Cl)cc(N[C@@H](c3ccccc3)c3cn(C4CCN(C(C)(C)C)CC4)nn3)cc12)c1cccc(F)c1 [Example 633, 6-(((S)-(1-(1-(tert-butyl)piperidin-4-yl)-1H-1,2,3-triazol-4-yl)(phenyl)methyl)amino)-8-chloro-4-(((R)-1-(3-fluorophenyl)ethyl)amino) quinoline-3-carbonitrile] | 10 nM | 1580 nM
